Results taken from patent US9486444B1, “Anti-cancer compound” (KING SAUD UNIVERSITY, priority 2016, dated 2016).
“Also recorded” adds a separate entry of the source.

Test system: U-937 blood cancer cell line
Assay: MTT in vitro cytotoxicity assay
Format: cell-based
Details: U-937, MTT assay
Protocol: For cytotoxicity assays, the anti-cancer compounds were prepared as a stock solution, to suit a universal 96 well plate map, at different concentrations in μM, and dissolved in DMSO dH2O. Working solutions were prepared in the culture medium and added to the wells 24 hours after seeding of 5 to 7×10^3 cells per well in 200 μL of fresh culture medium. DMSO (1%)/dH2O was used as the solvent control. The DMSO concentration was maintained at a concentration less than 1% (i.e., a non-toxic concentration). Microscopic cytological changes were monitored and photographed following exposure to different concentrations of the compounds for 24 and 48 hours using an inverted microscope. After the respective periods of treatment, plates were centrifuged and washed with fresh growth medium. Then, 20 μL of MTT solution [5 mg/mL in phosphate-buffered saline (PBS)] was added to each well, and the plates were wrapped with aluminum foil and incubated overnight at 37° C. The plates were centrifuged and the supernatants were removed carefully […]. The purple formazan product was dissolved in 100 μL of 100% DMSO. The absorbance was monitored at 570 nm (measurement) and 630 nm (reference) using a 96 well plate reader. Data were collected for four replicates each and used to calculate the median effect dose or concentration; i.e., IC50. […]

| Substance | cytotoxicity (in words) (24 and 48 hours) | IC50 (24 hour incubation time, read-out: IC50 = concentration of drug required to inhibit growth of 50% of the cancer cells) [µM] |
| --- | --- | --- |
| 5′-benzyl-4′-(p-tolyl)-5-(trifluoromethoxy)spiro[3,2′]oxindolopyrrolidino-4′-(methylphenyl)-1″-styryl-5-benzylidene-spiro[3′.3″]piperidi-4″-one [Compound 4i] | most cytotoxic compound; also recorded: excellent cytotoxicity effects at the lowest concentrations | – |
| bleomycin [reference compound] | – | 16.2 ± 4.5 |
